The test system of test [1] is human monocyte-derived macrophages. In words: Effect of proteosome inhibitor PSI on induced TNFα production. The test is classed as cell-based. The note with it: FIG. 14. On the procedure: (§1) In the assays for cytokine production, cells were replated at 5×10^5 cells per well on a 96-well dish, and stimulated as above for 4 or 16 h. Supernatants were analysed for TNFα (27), IL-1β, IL-6 and IL-8 (23), IL-10 (29, 30), IL-1ra and the p55 and p75 soluble TNF receptors (31) by ELISA. The proteosome inhibitor Cbz-Ile-Glu(O-t-Bu)-Ala-leucinal (PSI) was obtained from Calbiochem (Nottingham. England).
The independence from NFκB of zymosan induced TNF was further emphasised by studies with the proteosome inhibitor PSI. Inhibition of proteosome function inhibits IκBα degradation thus preventing NFκB nuclear translocation.

Test [2] has as its system M-CSF-treated human monocytes. In words: Cytokine production in response to various stimuli (ELISA). The test is classed as cell-based. The settings on record: production induced by the stimulus; means of 4-11 experiments. The protocol: The elutriated human monocytes were incubated at approximately 2×10^6/ml in RPMI 1640 with 25 mM HEPES and 2 mM L-glutamine, supplemented with 5% (v/v) heat inactivated fetal calf serum and 10 units/ml penicillin/streptomycin. […] The cells were then replated on 100 mm Petri dishes and infected for 2 h with a m.o.i. of between 10:1 and 120:1 (in most experiments, 20:1. 40:1 or 80:1 was used) of either AdvIκBα or Adv0, in serum-free RPMI 1640. Cells were then incubated in RPMI 1640 supplemented as above for 48 h to allow for significant over-expression of IκBα, as assessed. During the changes of medium involved, non-adherent cells were discarded, resulting in a further purification of monocyte-derived macrophages.
as §1
LPS is capable of inducing all the cytokines (TNFα, IL-1β, IL-6, IL-8) and inhibitors (IL-10, IL-1ra and the soluble TNF receptors) assayed in this study (Table I; the results are means of 4-11 experiments). The induction of TNFα mRNA by zymosan, has previously been reported to be far weaker than LPS-induced TNFα mRNA in mouse peritoneal macrophages (32), but the TNFα response to zymosan in M-CSF-treated human monocytes was equal to that of LPS (Table 1).
In general terms: ELISA stands for enzyme-linked immunosorbent assay.

The next test deals with U937. The test is described as follows: Adenovirus infection and integrin induction in U937 cell line. The class given is cell-based, human. The note with it: results not shown.
The test system of a further test is primary human monocytes. The test is described as follows: Adenoviral infection of primary human monocytes (β-galactosidase expression by FACS). The note with it: prior cytokine treatment for 72 hours, then β-galactosidase adenovirus at 100 m.o.i. The test is classed as cell-based. On the procedure: Human monocytes or murine RAW 264.7 were cultured at 5×10^5/ml in RPM1 1640 (Bio Whittaker inc.) supplemented with 5% (v/v) heat inactivated foetal calf serum containing 10 units/ml penicillin/streptomycin and 2 mM glutamine at 37° C. Monocytes were treated with GM-CSF (5U/ml) or M-CSF (1 μg/ml) for 72 hours. Expression of integrins was assayed by indirect immunofluorescence and FACS analysis using monoclonal antibodies to αVβ3 (100 μg/ml LM609, provided by IXSYS Corp. (San Diego Calif. USA), or αVβ5 (undiluted active supernatant kindly provided by J. Gamble Smith). The commercially available monoclonal antibody OX14(100 μg/ml) was used as a negative control.
Following cytokine treatment monocytes were washed in RPM 1640 and resuspended at 5×10^5 cells/ml. The cells were infected with virus at the indicated plaque forming units per cell (multiplicity of infection—m.o.i.). β-galactosidase expression in individual cells was measured by FACS.
For orientation: Flow cytometry measures light scatter and fluorescence of single cells or particles in a stream.

Another test has as its system THP-1. In words: Adenovirus infection and integrin induction in THP-1 cell line. The class given is cell-based, human. The settings on record: results not shown.

Residues, ends and D or L forms follow the SMILES beside them. *: point of attachment. Cbz = O=C(OCc1ccccc1)*; OtBu = CC(C)(C)O*

Turning to `CC[C@H](C)[C@H](NC(=O)OCc1ccccc1)C(=O)N[C@@H](CCC(=O)OC(C)(C)C)C(=O)N[C@@H](C)C(=O)N[C@H](C=O)CC(C)C` [PSI, Cbz-Ile-Glu(O-t-Bu)-Ala-leucinal] (Cbz-IE(OtBu)AL-aldehyde), the “effect on LPS induced TNF production” value in test [1] (LPS) is recorded as “very effective in blocking”. For the same molecule, in test [1] (zymosan), the “effect on zymosan-induced TNF production” value is given as “did not affect”.

As for `C[C@H](CCC(=O)O)C[C@H](C)C[C@H](C)C(=O)/C=C(\O)[C@H](C)C[C@H](C)C/C=C/[C@@H](C)[C@@H](O)[C@@H](C)[C@@H](O)C[C@@H]1CC[C@@](C)([C@H]2CC[C@@](C)([C@@H](C)O)O2)O1` [Lomycin, ionomycin], in test [2], the “Anti-inflammatory cytokines: IL-10” value is 0 pg/mL, the “Anti-inflammatory cytokines: IL-tra” value was found to be 0 pg/mL, the “Anti-inflammatory cytokines: P55 s TNF-R” value was 0 pg/mL and the “Anti-inflammatory cytokines: P75 s TNF-R” value stood at 0 pg/mL. Further, in test [2], the “Proinflammatory cytokines: IL-1” value was 0 pg/mL, the “Proinflammatory cytokines: IL-6” value was found to be 0 pg/mL, the “Proinflammatory cytokines: IL-8” value worked out at 900 pg/mL and the “Proinflammatory cytokines: TNFα” value worked out at 0 pg/mL.

TNFα: in test [2], the “Anti-inflammatory cytokines: IL-10” value turned out to be 0 pg/mL, the “Proinflammatory cytokines: IL-1” value came out at 200 pg/mL and the “Proinflammatory cytokines: IL-6” value was 2000 pg/mL.

Take “GM-CSF: granulocyte-macrophage colony stimulating factor”: the “induction of αVβ3 or αVβ5 expression” value in the test on U937 and in the test on THP-1 was “neither cytokine was able to induce” throughout. In addition, the “cells expressing the β-galactosidase gene” value in the test on primary human monocytes stood at 52%.

On to `CCCCCCCCCCCCCC(=O)O[C@@H]1[C@@H](C)[C@@]2(O)[C@@H](C=C(CO)C[C@]3(O)C(=O)C(C)=C[C@@H]23)[C@@H]2C(C)(C)[C@]12OC(C)=O` [PMA], for which, in test [2], the “Anti-inflammatory cytokines: IL-10” value amounted to 0 pg/mL, the “Anti-inflammatory cytokines: IL-tra” value stood at 1000 pg/mL, the “Anti-inflammatory cytokines: P55 s TNF-R” value came out at 0 pg/mL and the “Anti-inflammatory cytokines: P75 s TNF-R” value worked out at 500 pg/mL. Moreover, in test [2], the “Proinflammatory cytokines: IL-1” value came to 400 pg/mL, the “Proinflammatory cytokines: IL-6” value was found to be 300 pg/mL, the “Proinflammatory cytokines: IL-8” value stood at 3000 pg/mL and the “Proinflammatory cytokines: TNFα” value was 6000 pg/mL.

B1: M-CSF: macrophage colony stimulating factor (protein, UniProt P09603 33-554, looked up)
Macrophage colony-stimulating …: EEVSEYCSHMIGSGHLQSLQRLIDSQMETSCQITFEFVDQEQLKDPVCYLKKAFLLVQDIMEDTMRFRDNTPNAIAIVQLQELSLRLKSCFTKDYEEHDKACVRTFYETPLQLLEKVKNVFNETKNLLDKDWNIFSKNCNNSFAECSSQDVVTKPDCNCLYPKAIPSSDPASVSPHQPLAPSMAPVAGLTWEDSEGTEGSSLLPGEQPLHTVDPGSAKQRPPRSTCQSFEPPETPVVKDSTIGGSPQPRPSVGAFNPGMEDILDSAMGTNWVPEEASGEASEIPVPQGTELSPSRPGGGSMQTEPARPSNFLSASSPLPASAKGQQPADVTGTALPRVGPVRPTGQDWNHTPQKTDHPSALLRDPPEPGSPRISSLRPQGLSNPSTLSAQPQLSRSHSSGSVLPLGELEGRRSTRDRRSPAEPEGGPASEGAARPLPRFNSVPLTDTGHERQSEGSFSPQLQESVFHLLVPSVILVLLAVGGLLFYRWRRRSHQEPQRADSPLEQPEGSPLTQDDRQVELPV
Take B1: the “induction of αVβ3 or αVβ5 expression” value with U937 and in the test on THP-1 was “neither cytokine was able to induce” each time. The “cells expressing the β-galactosidase gene” value in the test with primary human monocytes is on record as 90%.

(Values after patent US20020177572A1, “Viral infection of cells” (priority 1997, published 2002).)
